Experimental data published in PubChem BioAssay AID248 (DTP/NCI, 2004).
Several values for one entry are separate records, joined by “and”; a condition that tells them apart may be missing. Identical values can stand only once. Inconclusive results and toxic doses are left out. No stated cut-off is given here; in the data, active means T/C of 150% or more; inactive means T/C below 125%.

Test system: L1210 leukemia ip in BDF1 mice, survival T/C
Test: NCI In Vivo Anticancer Drug Screen. Data for tumor model L1210 Leukemia (intraperitoneal) in B6D2F1 (BDF1) mice
Conditions: endpoint: mean survival time, higher = longer survival
Procedure, shortened: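 Survival endpoint. Drug-treated group vs vehicle group, expressed as T divided by C. Tumor passaged by transplantation.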

[1] = dose: 100.0 mg/kg/injection, schedule: Q04DX003 (ip), vehicle: saline
[2] = dose: 200.0 mg/kg/injection, schedule: Q04DX003 (ip), vehicle: saline
[3] = dose: 400.0 mg/kg/injection, schedule: Q04DX003 (ip), vehicle: saline
[4] = dose: 50.0 mg/kg/injection, schedule: Q01DX009 (ip), vehicle: saline
[5] = dose: 100.0 mg/kg/injection, schedule: Q01DX009 (ip), vehicle: saline
[6] = dose: 200.0 mg/kg/injection, schedule: Q01DX009 (ip), vehicle: saline
[7] = dose: 400.0 mg/kg/injection, schedule: Q01DX009 (ip), vehicle: saline
[8] = dose: 100.0 mg/kg/injection, schedule: Q04DX002 (ip), vehicle: Klucel (hydroxypropylcellulose) (HPC)
[9] = dose: 200.0 mg/kg/injection, schedule: Q04DX002 (ip), vehicle: Klucel (hydroxypropylcellulose) (HPC)
[10] = dose: 400.0 mg/kg/injection, schedule: Q04DX002 (ip), vehicle: Klucel (hydroxypropylcellulose) (HPC)
[11] = dose: 100.0 mg/kg/injection, schedule: Q01DX001 (ip), vehicle: Klucel (hydroxypropylcellulose) (HPC)
[12] = dose: 100.0 mg/kg/injection, schedule: Q01DX009 (ip), vehicle: Klucel (hydroxypropylcellulose) (HPC)
[13] = dose: 100.0 mg/kg/injection, schedule: Q04DX003 (ip), vehicle: Klucel (hydroxypropylcellulose) (HPC)
[14] = dose: 200.0 mg/kg/injection, schedule: Q01DX009 (ip), vehicle: Klucel (hydroxypropylcellulose) (HPC)
[15] = dose: 200.0 mg/kg/injection, schedule: Q04DX003 (ip), vehicle: Klucel (hydroxypropylcellulose) (HPC)
[16] = dose: 400.0 mg/kg/injection, schedule: Q01DX009 (ip), vehicle: Klucel (hydroxypropylcellulose) (HPC)
[17] = dose: 200.0 mg/kg/injection, schedule: Q04DX003 (ip), vehicle: saline with Tween-80
[18] = dose: 400.0 mg/kg/injection, schedule: Q04DX003 (ip), vehicle: saline with Tween-80
[19] = dose: 100.0 mg/kg/injection, schedule: Q04DX003 (ip), vehicle: saline with Tween-80
[20] = dose: 100.0 mg/kg/injection, schedule: Q01DX009 (ip), vehicle: saline with Tween-80
[21] = dose: 200.0 mg/kg/injection, schedule: Q01DX009 (ip), vehicle: saline with Tween-80
[22] = dose: 400.0 mg/kg/injection, schedule: Q01DX009 (ip), vehicle: saline with Tween-80

Measured: T/C

CCOC(=O)C(N)CCSSCCC(N)C(=O)OCC (stereo not drawn)
inactive: dose: 177.0 mg/kg/injection, schedule: Q01DX001 (ip), vehicle: saline 92 % of control | dose: 267.0 mg/kg/injection, schedule: Q01DX001 (ip), vehicle: saline 92 % of control | dose: 400.0 mg/kg/injection, schedule: Q01DX001 (ip), vehicle: saline 95 % of control | dose: 600.0 mg/kg/injection, schedule: Q01DX001 (ip), vehicle: saline 104 % of control

O=C(NCCCOc1ccc([N+](=O)[O-])cc1Cl)Nc1ccc(S(=O)(=O)F)cc1
inactive: dose: 75.0 mg/kg/injection, schedule: Q01DX001 (ip), vehicle: carboxymethylcellulose (CMC) 98 % of control | [1] 103 % of control | dose: 150.0 mg/kg/injection, schedule: Q01DX001 (ip), vehicle: carboxymethylcellulose (CMC) 89 % of control | [2] 103 % of control | dose: 300.0 mg/kg/injection, schedule: Q01DX001 (ip), vehicle: carboxymethylcellulose (CMC) 87 % of control | [3] 105 % of control

CN(C)Cc1cc(C(F)(F)F)ccc1C(O)(c1ccccc1)c1ccccc1
inactive: dose: 50.0 mg/kg/injection, schedule: Q01DX001 (ip), vehicle: carboxymethylcellulose (CMC) 110 % of control | dose: 100.0 mg/kg/injection, schedule: Q01DX001 (ip), vehicle: carboxymethylcellulose (CMC) 101 % of control | dose: 200.0 mg/kg/injection, schedule: Q01DX001 (ip), vehicle: carboxymethylcellulose (CMC) 101 % of control | dose: 400.0 mg/kg/injection, schedule: Q01DX001 (ip), vehicle: carboxymethylcellulose (CMC) 98 % of control

NC(CCSC(c1ccccc1)(c1ccccc1)c1ccccc1)C(=O)O (stereo not drawn)
inactive: [4] 94 % of control and 103 % of control | [5] 95 % of control and 107 % of control | [6] 97 % of control and 106 % of control | [7] 100 % of control and 108 % of control

O=C(Nc1ccccn1)Nc1cccc2ccccc12
inactive: [8] 103 % of control | [9] 97 % of control | [10] 87 % of control

CC(C)(C)C(C)(C)O
inactive: dose: 75.0 mg/kg/injection, schedule: Q01DX001 (ip), vehicle: saline with Tween-80 100 % of control | dose: 150.0 mg/kg/injection, schedule: Q01DX001 (ip), vehicle: saline with Tween-80 97 % of control | dose: 300.0 mg/kg/injection, schedule: Q01DX001 (ip), vehicle: saline with Tween-80 92 % of control

CC(C(=O)O)N(C)C(=O)OCc1ccccc1 (stereo not drawn)
inactive: dose: 100.0 mg/kg/injection, schedule: Q01DX001 (ip), vehicle: acetone 103 % of control | [1] 105 % of control | dose: 200.0 mg/kg/injection, schedule: Q01DX001 (ip), vehicle: acetone 101 % of control | [2] 90 % of control | dose: 400.0 mg/kg/injection, schedule: Q01DX001 (ip), vehicle: acetone 96 % of control | [3] 92 % of control

Nc1ccc(Cc2ccc(N)cc2)cc1
inactive: dose: 25.0 mg/kg/injection, schedule: Q01DX009 (ip), vehicle: gum acacia 95 % of control | dose: 50.0 mg/kg/injection, schedule: Q01DX009 (ip), vehicle: gum acacia 105 % of control | dose: 100.0 mg/kg/injection, schedule: Q01DX009 (ip), vehicle: gum acacia 105 % of control and 112 % of control

Cc1cc(C)nc(NC(=O)Nc2cc(Cl)ccc2C)c1
inactive: [11] 90 % of control | [12] 92 % of control | [8] 100 % of control | [13] 93 % of control | dose: 200.0 mg/kg/injection, schedule: Q01DX001 (ip), vehicle: Klucel (hydroxypropylcellulose) (HPC) 100 % of control | [14] 94 % of control and 91 % of control | [9] 96 % of control | [15] 92 % of control | dose: 400.0 mg/kg/injection, schedule: Q01DX001 (ip), vehicle: Klucel (hydroxypropylcellulose) (HPC) 95 % of control | [16] 94 % of control and 96 % of control | [10] 100 % of control | dose: 400.0 mg/kg/injection, schedule: Q04DX003 (ip), vehicle: Klucel (hydroxypropylcellulose) (HPC) 109 % of control

COc1cccc(NN)c1
inactive: [4] 100 % of control | [1] 101 % of control

Cc1cc(C)c(CCc2c(C)cc(C)cc2C)c(C)c1
inactive: [17] 104 % of control | [18] 102 % of control

[O]=[Sn]1[O][Bi]([O][Sn](=[O])[O][Bi]2[O][Sn](=[O])[O]2)[O]1
inactive: [5] 94 % of control | [6] 94 % of control | [7] 92 % of control

O=C1C=C(Nc2ccccc2)C(=O)C=C1Nc1ccccc1
inactive: [19] 86 % of control | [17] 86 % of control | [18] 86 % of control

O=[As](O)(O)CCCc1ccccc1
inactive: dose: 6.25 mg/kg/injection, schedule: Q01DX009 (ip), vehicle: Klucel (hydroxypropylcellulose) (HPC) 108 % of control | dose: 12.5 mg/kg/injection, schedule: Q01DX009 (ip), vehicle: Klucel (hydroxypropylcellulose) (HPC) 108 % of control

O=C(CCN1CC=C(c2ccccc2)CC1)c1ccc(F)cc1
inactive: dose: 50.0 mg/kg/injection, schedule: Q01DX001 (ip), vehicle: Klucel (hydroxypropylcellulose) (HPC) 93 % of control | [11] 97 % of control

COc1ccc(C)cc1NC(=O)C1CC1
inactive: [12] 103 % of control | [14] 113 % of control | [16] 104 % of control

O=C(N/N=C/c1ccc(Cl)cc1Cl)c1ccccc1
inactive: [13] 101 % of control | [15] 95 % of control

COc1cc2c(cc1OC)C(CC1=CCN3CCC4=C(C=CCC4)C3C1)NCC2 (stereo not drawn)
inactive: dose: 4.0 mg/kg/injection, schedule: Q04DX003 (ip), vehicle: water 106 % of control | dose: 8.0 mg/kg/injection, schedule: Q04DX003 (ip), vehicle: water 101 % of control | dose: 16.0 mg/kg/injection, schedule: Q04DX003 (ip), vehicle: water 102 % of control | dose: 32.0 mg/kg/injection, schedule: Q04DX003 (ip), vehicle: water 101 % of control | dose: 64.0 mg/kg/injection, schedule: Q04DX003 (ip), vehicle: water 112 % of control

Cc1cccc(Cl)c1NC(=O)Nc1cccc(O)c1
inactive: [20] 100 % of control | [21] 100 % of control | [22] 97 % of control

CCCC(C)c1ccc(C(C)=O)cc1 (stereo not drawn)
inactive: dose: 25.6 mg/kg/injection, schedule: Q04DX002 (ip), vehicle: saline with Tween-80 100 % of control | dose: 64.0 mg/kg/injection, schedule: Q04DX002 (ip), vehicle: saline with Tween-80 92 % of control | [20] 89 % of control | [19] 91 % of control | dose: 160.0 mg/kg/injection, schedule: Q04DX002 (ip), vehicle: saline with Tween-80 88 % of control | [21] 89 % of control | [17] 96 % of control | [22] 90 % of control | dose: 400.0 mg/kg/injection, schedule: Q04DX002 (ip), vehicle: saline with Tween-80 92 % of control | [18] 88 % of control

CC(CN(CCNc1ccccc1)c1ccccc1)c1ccccc1 (stereo not drawn)
inactive: dose: 25.0 mg/kg/injection, schedule: Q01DX009 (ip), vehicle: other 102 % of control | dose: 50.0 mg/kg/injection, schedule: Q01DX009 (ip), vehicle: other 105 % of control | dose: 100.0 mg/kg/injection, schedule: Q01DX009 (ip), vehicle: other 100 % of control | [1] 100 % of control | dose: 200.0 mg/kg/injection, schedule: Q01DX009 (ip), vehicle: other 104 % of control | [2] 92 % of control | dose: 300.0 mg/kg/injection, schedule: Q01DX009 (ip), vehicle: other 96 % of control | [3] 86 % of control

N#C/C(=C1/N=C(N)NC1=O)c1ccc(Cl)cc1
inactive: dose: 25.0 mg/kg/injection, schedule: Q01DX001 (ip), vehicle: saline with Tween-80 92 % of control | dose: 50.0 mg/kg/injection, schedule: Q01DX001 (ip), vehicle: saline with Tween-80 89 % of control | dose: 100.0 mg/kg/injection, schedule: Q01DX001 (ip), vehicle: saline with Tween-80 94 % of control
